Laboratory results published in patent US10570184B2, “GLP-1/glucagon receptor co-agonists for medical use” (Novo Nordisk A/S, priority 2014, dated 2020).
Starred links: 1 amine or outer side, 2 acyl side, 3 side chain; linkers in the order of their positions; H or OH if unused. Non-standard residues stand in square brackets, D forms with d. Residues, ends and D or L forms follow the SMILES beside them. Groups on a side chain read outwards from the residue. *: point of attachment. C18 diacid = O=C(O)CCCCCCCCCCCCCCCCC(=O)*; γGlu = O=C(O)[C@H](CCC(=O)[*:2])N[*:1]; Ac4c = NC1(C(=O)O)CCC1; AEEA = NCCOCCOCC(=O)O; Aib = CC(C)(N)C(=O)O

Biological target: T1, human glucagon receptor (Homo sapiens, UniProt P47871)
T1 construct: expressed in transfected cells; host or cells: membranes of BHK cells, clone BHK hGCGR A3*25
T1 sequence (P47871 26-477): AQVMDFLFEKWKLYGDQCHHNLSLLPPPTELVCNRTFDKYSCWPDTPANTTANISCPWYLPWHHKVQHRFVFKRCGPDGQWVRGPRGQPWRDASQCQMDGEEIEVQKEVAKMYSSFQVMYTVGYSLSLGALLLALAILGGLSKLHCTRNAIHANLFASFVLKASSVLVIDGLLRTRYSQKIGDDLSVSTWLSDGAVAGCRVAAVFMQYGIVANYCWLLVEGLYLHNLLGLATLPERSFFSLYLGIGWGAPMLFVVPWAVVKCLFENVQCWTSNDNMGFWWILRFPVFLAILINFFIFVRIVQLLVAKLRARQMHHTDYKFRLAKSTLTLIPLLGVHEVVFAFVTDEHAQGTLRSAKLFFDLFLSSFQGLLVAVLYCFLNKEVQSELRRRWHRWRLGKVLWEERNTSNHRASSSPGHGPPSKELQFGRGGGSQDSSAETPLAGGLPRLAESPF
Test: Assay (I)(b) glucagon receptor activation, CRE luciferase reporter gene assay in BHK cells
Type: cell-based
Details: without presence of serum albumin; read-out: GlucagonR EC50 (pM), [Assay (I)(b)]
Experimental: The purpose of this example was to test the activity or potency, of the glucagon derivatives of the invention, in vitro. The in vitro potency is the measure of human GLP-1 receptor (GLP-1R) or glucagon receptor (glucagonR) activation, respectively, in a whole cell assay. In vitro potency was determined by measuring the response of human GLP-1 or glucagon receptor, respectively, in a reporter gene assay. The assay was performed in a stably transfected BHK cell line that expresses either the human GLP-1 receptor or the human glucagon receptor and contains the DNA for the cAMP response element (CRE) coupled to a promoter and the gene for firefly luciferase (CRE luciferase). […] When assay incubation was completed, the luciferase substrate (luciferin) was added and the enzyme converted luciferin to oxyluciferin and produces bioluminescence. The luminescence was measured as the readout for the assay. The cells used in this assay (clone pLJ6′-4-25) were BHK cells with BHK570 as a parent cell line expressing the CRE luciferase gene (clone BHK/KZ10-20-48) and were established by further transfection with the human glucagon receptor (clone pLJ6′ in pHZ-1 vector). The cells were cultured at 5% CO2 in DMEM medium with 10% FBS, 1×GlutaMAX, 1 mg/ml G418, 240 nM MTX (methotrexate) and 1% pen/strep (penicillin/streptomycin). They were aliquoted and stored in liquid nitrogen. Before each assay, an aliquot was taken up and washed three times in PBS before being suspended at the desired concentration in assay medium. For 96-well plates the suspension was made to give a final concentration of 5×10EE3 cells/well. The following chemicals were used in the assay: Pluronic F-68 (10%) (Gibco 2404), ovalbumin (Sigma A5503), DMEM w/o phenol red (Gibco 11880-028), 1 M Hepes (Gibco 15630), Glutamax 100× (Gibco 35050) and steadylite plus (PerkinElmer 6016757). Assay Medium consisted of DMEM w/o phenol red, 10 mM Hepes, 1× GlutaMAX, 2% Ovalbumin and 0.2% Pluronic F-68. Cell stocks were thawed in a 37° C. water bath. Cells were washed three times in PBS. The cells were counted and adjusted to 5×10EE3 cells/50 μl (1×10EE5 cells/ml) in Assay Medium. A 50 μl aliquot of cells was transferred to each well in the assay plate. Stocks of the test compounds and reference compounds were diluted to a concentration of […] in Assay Medium. Compounds were diluted 10-fold to give the following concentrations: 2×10EE-6 M, 2×10EE-7 M, 2×10EE-8 M; 2×10EE-9 M, 2×10EE-10 M, 2×10EE-11 M, 2×10EE-12 M and 2×10EE-13 M. For each compound a blank assay medium control was also included. A 50 μl aliquot of compound or blank was transferred from the dilution plate to the assay plate. Compounds were tested at the following final concentrations: 1×10EE-6 M, 1×10EE-7 M, 1×10EE-8 M; 1×10EE-9 M, 1×10EE-10 M, 1×10EE-11 M and 1×10EE-12 M and 1×10EE-13 M. The assay plate was incubated for 3 h in a 5% CO2 incubator at 37° C. The assay plate was removed from the incubator and allowed to stand at room temperature for 15 min. A 100 μl aliquot of steadylite plus reagent was added to each well of the assay plate (reagent is light sensitive). Each assay plate was covered with aluminum foil to protect it from light and shaken for 30 min at room temperature. Each assay plate was read in a Perkin Elmer TopCount NXT instrument. The data from the TopCount instrument was transferred to GraphPad Prism software. The software performed a non-linear regression (log(agonist) vs response-Variable slope (four parameter)). EC50 values were calculated by the software and reported in pM.

| SMILES | EC50 [pM] |
| --- | --- |
| CC[C@H](C)[C@H](NC(=O)[C@H](CC(C)C)NC(=O)[C@H](Cc1c[nH]c2ccccc12)NC(=O)[C@H](CCCCNC(=O)COCCOCCNC(=O)COCCOCCNC(=O)CC[C@H](NC(=O)CC[C@H](NC(=O)CC[C@H](NC(=O)CCCCCCCCCCCCCCCCC(=O)O)C(=O)O)C(=O)O)C(=O)O)NC(=O)[C@@H](NC(=O)[C@H](Cc1ccccc1)NC(=O)[C@H](CCC(=O)O)NC(=O)[C@H](CCCNC(=N)N)NC(=O)[C@H](C)NC(=O)[C@H](CCCNC(=N)N)NC(=O)[C@H](CCCNC(=N)N)NC(=O)[C@H](C)NC(=O)[C@H](CC(=O)O)NC(=O)[C@H](CC(C)C)NC(=O)[C@H](Cc1ccc(O)cc1)NC(=O)[C@H](CCCCN)NC(=O)[C@H](CO)NC(=O)[C@H](Cc1ccc(O)cc1)NC(=O)[C@H](CC(=O)O)NC(=O)[C@H](CO)NC(=O)[C@@H](NC(=O)[C@H](Cc1ccccc1)NC(=O)[C@@H](NC(=O)CNC(=O)[C@H](CCC(N)=O)NC(=O)C(C)(C)NC(=O)[C@@H](N)Cc1c[nH]cn1)[C@@H](C)O)[C@@H](C)O)C(C)C)C(=O)N[C@@H](CO)C(=O)N[C@H](C(N)=O)[C@@H](C)O [Chem. 4, N^ε24-[2-[2-[2-[[2-[2-[2-[[(4S)-4-carboxy-4-[[(4S)-4-carboxy-4-[[(4S)-4-carboxy-4-(17-carboxyheptadecanoylamino)butanoyl]amino]butanoyl]amino]butanoyl]amino]ethoxy]ethoxy]acetyl]amino]ethoxy]ethoxy]acetyl]-[Aib2,Ala16,Arg20,Glu21,Lys24,Ile27,Ser28]-Glucagon amide] (H-H[Aib]QGTFTSDYSKYLDARRAREFVK([AEEA-AEEA-γGlu-γGlu-γGlu-C18 diacid])WLIST-NH2; N-terminus assumed) | 12 |
| CC[C@H](C)[C@H](NC(=O)[C@H](CC(C)C)NC(=O)[C@H](Cc1c[nH]c2ccccc12)NC(=O)[C@H](CCC(N)=O)NC(=O)[C@@H](NC(=O)[C@H](Cc1ccccc1)NC(=O)[C@H](CC(=O)O)NC(=O)[C@H](CCC(N)=O)NC(=O)[C@H](C)NC(=O)[C@H](CCCNC(=N)N)NC(=O)[C@H](CCCNC(=N)N)NC(=O)[C@H](C)NC(=O)[C@H](CC(=O)O)NC(=O)[C@H](CC(C)C)NC(=O)[C@H](Cc1ccc(O)cc1)NC(=O)[C@H](CCCCN)NC(=O)[C@H](CO)NC(=O)[C@H](CC(C)C)NC(=O)[C@H](CC(=O)O)NC(=O)[C@H](CO)NC(=O)[C@@H](NC(=O)[C@H](Cc1ccccc1)NC(=O)[C@@H](NC(=O)CNC(=O)[C@H](CCC(N)=O)NC(=O)C(C)(C)NC(=O)[C@@H](N)Cc1c[nH]cn1)[C@@H](C)O)[C@@H](C)O)C(C)C)C(=O)N[C@@H](CCCCNC(=O)COCCOCCNC(=O)COCCOCCNC(=O)CC[C@H](NC(=O)CC[C@H](NC(=O)CC[C@H](NC(=O)CCCCCCCCCCCCCCCCC(=O)O)C(=O)O)C(=O)O)C(=O)O)C(=O)N[C@H](C(N)=O)[C@@H](C)O [Chem. 7, N^ε28-[2-[2-[2-[[2-[2-[2-[[(4S)-4-carboxy-4-[[(4S)-4-carboxy-4-[[(4S)-4-carboxy-4-(17-carboxyheptadecanoylamino)butanoyl]amino]butanoyl]amino]butanoyl]amino]ethoxy]ethoxy]acetyl]amino]ethoxy]ethoxy]acetyl]-[Aib2,Leu10,Ala16,Ile27,Lys28]-Glucagon amide] (H-H[Aib]QGTFTSDLSKYLDARRAQDFVQWLIK([AEEA-AEEA-γGlu-γGlu-γGlu-C18 diacid])T-NH2; N-terminus assumed) | 32 |
| CC[C@H](C)[C@H](NC(=O)[C@H](CC(C)C)NC(=O)[C@H](Cc1c[nH]c2ccccc12)NC(=O)[C@H](CCC(N)=O)NC(=O)[C@@H](NC(=O)[C@H](Cc1ccccc1)NC(=O)[C@H](CCC(=O)O)NC(=O)[C@H](CCCNC(=N)N)NC(=O)[C@H](C)NC(=O)[C@H](CCCNC(=N)N)NC(=O)[C@H](CCCNC(=N)N)NC(=O)[C@H](CO)NC(=O)[C@H](CCC(=O)O)NC(=O)[C@H](CC(C)C)NC(=O)[C@H](Cc1ccc(O)cc1)NC(=O)[C@H](CCCCN)NC(=O)[C@H](CO)NC(=O)[C@H](CC(C)C)NC(=O)[C@H](CC(=O)O)NC(=O)[C@H](CO)NC(=O)[C@@H](NC(=O)[C@H](Cc1ccccc1)NC(=O)[C@@H](NC(=O)CNC(=O)[C@H](CCC(N)=O)NC(=O)C1(NC(=O)[C@@H](N)Cc2c[nH]cn2)CCC1)[C@@H](C)O)[C@@H](C)O)C(C)C)C(=O)N[C@@H](CCCCNC(=O)COCCOCCNC(=O)COCCOCCNC(=O)CC[C@H](NC(=O)CC[C@H](NC(=O)CCCCCCCCCCCCCCCCC(=O)O)C(=O)O)C(=O)O)C(=O)N[C@H](C(N)=O)[C@@H](C)O [Chem. 18, N^ε28-[2-[2-[2-[[2-[2-[2-[[(4S)-4-carboxy-4-[[(4S)-4-carboxy-4-(17-carboxyheptadecanoylamino)butanoyl]amino]butanoyl]amino]ethoxy]ethoxy]acetyl]amino]ethoxy]ethoxy]acetyl]-[Acb2,Leu10,Glu15,Arg20,Glu21,Ile27,Lys28]-Glucagon amide] (H-H[Ac4c]QGTFTSDLSKYLESRRAREFVQWLIK([AEEA-AEEA-γGlu-γGlu-C18 diacid])T-NH2) | 32 |
| CC[C@H](C)[C@H](NC(=O)[C@H](CC(C)C)NC(=O)[C@H](Cc1c[nH]c2ccccc12)NC(=O)[C@H](CCC(N)=O)NC(=O)[C@@H](NC(=O)[C@H](Cc1ccccc1)NC(=O)[C@H](CC(=O)O)NC(=O)[C@H](CCCNC(=N)N)NC(=O)[C@H](C)NC(=O)[C@H](CCCNC(=N)N)NC(=O)[C@H](CCCNC(=N)N)NC(=O)[C@H](C)NC(=O)[C@H](CC(=O)O)NC(=O)[C@H](CC(C)C)NC(=O)[C@H](Cc1ccc(O)cc1)NC(=O)[C@H](CCCCN)NC(=O)[C@H](CO)NC(=O)[C@H](CC(C)C)NC(=O)[C@H](CC(=O)O)NC(=O)[C@H](CO)NC(=O)[C@@H](NC(=O)[C@H](Cc1ccccc1)NC(=O)[C@@H](NC(=O)CNC(=O)[C@H](CCC(N)=O)NC(=O)C(C)(C)NC(=O)[C@@H](N)Cc1c[nH]cn1)[C@@H](C)O)[C@@H](C)O)C(C)C)C(=O)N[C@@H](CO)C(=O)N[C@@H](CCCCNC(=O)CC[C@H](NC(=O)CC[C@H](NC(=O)COCCOCCNC(=O)COCCOCCNC(=O)CC[C@H](NC(=O)CCCCCCCCCCCCCCCCC(=O)O)C(=O)O)C(=O)O)C(=O)O)C(N)=O [Chem. 27, N^ε29-[(4S)-4-carboxy-4-[[(4S)-4-carboxy-4-[[2-[2-[2-[[2-[2-[2-[[(4S)-4-carboxy-4-(17-carboxyheptadecanoylamino)butanoyl]amino]ethoxy]ethoxy]acetyl]amino]ethoxy]ethoxy]acetyl]amino]butanoyl]amino]butanoyl]-[Aib2,Leu10,Ala16,Arg20,Ile27,Ser28,Lys29]-Glucagon amide] (H-H[Aib]QGTFTSDLSKYLDARRARDFVQWLISK([γGlu-γGlu-AEEA-AEEA-γGlu-C18 diacid])-NH2; N-terminus assumed) | 66 |
